Source: ChEMBL document CHEMBL1137043, “Development of a polyvalent assay system for lead identification” (Bioorg Med Chem Lett, 2004)
*1 amine or outer side, *2 acyl side, *3 side chain or, on linkers, in order; H or OH if unused. Where a SMILES comes first, the peptide text is derived from it. [ ]: non-standard residue; d: D form. X1 = O=C(O)COc1ccc(C[C@H](N[*:1])C(=O)[*:2])cc1C(=O)O

target: T1, Tyrosine-protein phosphatase non-receptor type 1 (Homo sapiens, UniProt P18031); assay: In vitro inhibitory concentration against Protein-tyrosine phosphatase 1B hydrolysis of p-nitrophenol phosphate
T1 sequence (P18031 whole entry): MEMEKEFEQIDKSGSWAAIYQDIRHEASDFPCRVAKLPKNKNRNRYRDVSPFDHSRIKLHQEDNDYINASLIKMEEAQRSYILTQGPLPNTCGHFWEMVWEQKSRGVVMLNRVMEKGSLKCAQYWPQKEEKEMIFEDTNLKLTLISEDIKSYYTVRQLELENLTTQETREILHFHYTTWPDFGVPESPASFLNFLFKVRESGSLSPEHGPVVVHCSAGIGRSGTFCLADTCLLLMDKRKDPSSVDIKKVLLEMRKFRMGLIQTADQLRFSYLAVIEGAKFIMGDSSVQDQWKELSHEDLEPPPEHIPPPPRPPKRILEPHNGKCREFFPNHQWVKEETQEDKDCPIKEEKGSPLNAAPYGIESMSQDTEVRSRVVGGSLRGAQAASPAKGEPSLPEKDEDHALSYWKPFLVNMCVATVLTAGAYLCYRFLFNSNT

| Structure (SMILES) | Ki [µM] |
| --- | --- |
| CC[C@@H](C)[C@H](NC(=O)C(Cc1ccc(OCC(=O)O)c(C(=O)O)c1)NC(=O)[C@H](CC(=O)O)NC(C)=O)C(=O)N[C@@H](CCCN=C(N)N)C(N)=O (stereo partly drawn) | 11 |
| CCC(C)[C@H](NC(=O)C(Cc1ccc(OCC(=O)O)c(C(=O)O)c1)NC(=O)[C@H](CC(=O)O)NC(C)=O)C(N)=O (stereo partly drawn) | 41 |
| CC[C@H](C)[C@H](NC(=O)[C@H](Cc1ccc(OCC(=O)O)c(C(=O)O)c1)NC(=O)[C@H](CC(=O)O)NC(C)=O)C(=O)N[C@@H](CCCN=C(N)N)C(=O)NCC(=O)NCC(=O)NCC(N)=O (Ac-D[X1]IRGGG-NH2) | 18 |
